The source of these data is patent US9260417B2, “Therapeutic methods and compositions involving allosteric kinase inhibition” (AMITECH THERAPEUTIC SOLUTIONS, INC., priority 2010, dated 2016).

The target in one assay is CSNK1E (Homo sapiens (Human), UniProt P49674). The assay can be described thus: KINOMEscan competitive binding assay. The settings on record: 10 uM.
The target of the next assay is PAK1 (Homo sapiens (Human), UniProt Q13153). Briefly: KINOMEscan competitive binding assay. The conditions noted are these: 10 uM.
PAK1, sequence (Q13153 whole entry): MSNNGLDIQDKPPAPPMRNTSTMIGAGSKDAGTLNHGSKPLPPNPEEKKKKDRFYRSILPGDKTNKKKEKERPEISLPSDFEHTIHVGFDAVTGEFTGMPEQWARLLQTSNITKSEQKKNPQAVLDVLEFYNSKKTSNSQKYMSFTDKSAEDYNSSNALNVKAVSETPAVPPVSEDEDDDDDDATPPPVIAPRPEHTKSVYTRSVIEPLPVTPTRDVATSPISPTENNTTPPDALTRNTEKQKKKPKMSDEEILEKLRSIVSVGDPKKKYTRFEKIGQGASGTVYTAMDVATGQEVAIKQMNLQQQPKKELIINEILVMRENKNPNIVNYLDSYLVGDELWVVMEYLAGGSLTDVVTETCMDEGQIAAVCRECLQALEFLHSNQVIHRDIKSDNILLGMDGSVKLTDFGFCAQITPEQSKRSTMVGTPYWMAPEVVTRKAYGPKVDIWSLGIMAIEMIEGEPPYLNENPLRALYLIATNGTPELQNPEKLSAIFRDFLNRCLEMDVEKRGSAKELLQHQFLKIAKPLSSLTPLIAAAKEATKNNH
Another assay concerns the target PKAC-alpha (Homo sapiens (Human), UniProt P17612). Briefly: KINOMEscan competitive binding assay. The conditions noted are these: 10 uM.
The subject of the next assay is neointimal hyperplasia. Briefly: Mouse carotid artery wire-injury model of neointimal hyperplasia. It is filed as in vivo, mice. How it is done:
(FIG. 11A) Mouse carotid arteries were wire-injured as described in the Methods. […] (FIG. 11C) The corresponding percent stenosis (reflecting luminal narrowing) was calculated as described herein, *p<0.01. Error bars are reported as ±SEM. (FIG. 11D) PDGFRβ autophosphorylation in the injured arteries was measured on day 14, 4 h post-dose.
Restenosis is a process that commonly results from balloon angioplasty and/or stent placement resulting in eventual occlusion of arteries by a process described as neointimal hyperplasia (NIH). […] Therefore, the combination of PDGFRβ/B-RAF inhibition would be an ideal treatment for NIH. […] Mouse carotid arteries were wire-injured and treated the following day with 100 mg/kg, qd, via oral gavage. Representative sections of the injured arteries, stained with hematoxylin and eosin (FIG. 11A), were used to calculate the intimal/medial ratio—a measurement of the thickness of the inner two layers of the artery wall, which correlates with the size of the vessel lumen. […] As a pharmacodynamic endpoint, representative arteries were excised 4 h after the final dose and lysates were immunoblotted to detect activated PDGFRβ.

The next assay concerns NCI60 panel. The assay can be described thus: NCI60 panel growth inhibition. Type of assay: cell-based. The settings on record: average across NCI60 panel; read-out: average growth inhibitory concentration (GI50).
A further assay concerns A549 cells. The assay can be described thus: Cell proliferation assay (BrdU ELISA) in A549 cells. It is filed as cell-based. The conditions noted are these: A549, low serum DMEM (0.5% FBS), 72 h. The method, then:
A549 cells, which endogenously express oncogenic K-RAS, were plated at 2500 cells/well of a 96-well plate in low serum DMEM (0.5% fetal bovine serum) overnight. The next morning, compounds were serially diluted in DMSO and resuspended in fresh DMEM+0.5% medium, which was added to the cells for 72 h. At this time point the cells were fixed and proliferation was quantified using an ELISA for bromodeoxyuriding incorporation (BrdU ELISA, Millipore, Inc.). BrdU incorporation occurs during S phase and is the classical method for determining cell proliferation rates. In FIG. 14B-C, BrdU incorporation is expressed as a percentage of the BrdU incorporation occurring in cells treated with 0.1% DMSO as control. A dotted line represents the growth rate of cells treated with DMSO alone. […] (FIG. 13C)

Assay [1] has as its system MDA-MB231 human breast carcinoma cells. The assay can be described thus: MDA-MB231 orthotopic breast cancer xenograft. Type of assay: in vivo, mice. The method, then:
Tumors were generated by injection of MDA-MB231 human breast carcinoma cells (1×10^6 tumor cells in 50 μl of sterile PBS) into the mammary fatpad of 6-8 week old female Nu/Nu mice. Tumors were allowed to grow and the mice were randomized into two groups with an average tumor volume of 100 mm^3. […] Tumor growth was monitored by measuring the tumor length and width with precision calipers every 2 days and calculating tumor volume using the following formula: Tumor volume=0.5*(length)*(width)^2, provided the smaller measurement was utilized as the length. […] Scale bar 20 μM. […] Cells were lysed in RIPA buffer (50 mM Tris pH 7.4, 100 mM NaCl, 0.1% SDS, 1.0% TritonX-100, 1% deoxycholate) supplemented with complete protease inhibitor mixture (Roche), 50 mM NaF, and 1 mM Na3VO4 and centrifuged at 13,000 g for 10 min at 4° C. Protein concentration was determined by BCA assay and 30 μg of protein was loaded per lane of 10% SDS-PAGE gel. Immunohistochemistry in FIG. 18A was performed according to the manufacturer's recommendations (Vector Labs), on […] sections of paraffin-embedded tumors from the orthotopic xenograft breast cancer mouse model (MDA-MB231). For phospho-S338 CRAF immunohistochemistry, antigen retrieval was performed in citrate buffer pH 6.0 at 95° C. for 20 min. […]

Structures are written as SMILES.

CSNK1E, sequence (P49674 whole entry): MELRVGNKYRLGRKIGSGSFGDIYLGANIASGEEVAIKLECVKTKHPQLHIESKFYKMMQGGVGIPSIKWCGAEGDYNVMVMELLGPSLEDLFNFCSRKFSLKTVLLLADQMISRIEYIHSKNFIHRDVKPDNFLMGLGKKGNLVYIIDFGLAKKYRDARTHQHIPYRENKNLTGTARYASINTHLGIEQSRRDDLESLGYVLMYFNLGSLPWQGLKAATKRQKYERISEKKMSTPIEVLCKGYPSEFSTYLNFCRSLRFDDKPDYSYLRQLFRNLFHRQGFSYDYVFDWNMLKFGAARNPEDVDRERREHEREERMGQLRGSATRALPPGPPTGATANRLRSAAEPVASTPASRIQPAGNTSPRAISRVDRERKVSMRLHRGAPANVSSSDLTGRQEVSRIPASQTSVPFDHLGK
Experimental for PAK1: For the competitive binding assay, test compounds were screened at 10 μM against 70 diverse kinase targets for competitive binding using the KINOMEscan™ technology (Ambit Biosciences) (Karaman, et al. (2008) Nature biotechnology 26:127-132). 11-point Kd curves were determined for hits identified during the initial screen.

`CSc1nc(N)cc(Oc2ccc(-c3nnc(Nc4cccc(C(F)(F)F)c4)[nH]3)cc2)n1` [Compound 6]: the “% Control” value at CSNK1E worked out at 47%; on PAK1, 100%; on PKAC-alpha, 100%. Further, the percent stenosis entry in the assay with neointimal hyperplasia (100 mg/kg, qd, oral gavage, 14 days) is listed as “greatly reduced”. Further, the “PDGFRβ activation in injured arteries” value with neointimal hyperplasia (4 h after the final dose) is reported as “inhibited PDGFRβ activation”. Further, the GI50 in the assay with NCI60 panel was found to be 490 nM. Besides, the “cell proliferation (BrdU incorporation) versus DMSO control” value in the assay on A549 cells was “inhibitor cell proliferation”. Besides, in assay [1] (50 mg/kg, bid, ip), the “breast tumor growth compared to vehicle” value was “suppresses tumor growth”. For the same molecule, in assay [1] (three consecutive days, tumors resected 1 h after final dose), the “phosphorylation of CRAF S338 in breast tumors” value is recorded as “clearly inhibits phosphorylation of S338”.
